Active and inactive are the calls of the source.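 Rule for the calls: active = substrate turnover at or below 60%; inactive = substrate turnover above 60%.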

Diacylglycerol lipase-beta (Mus musculus), sequence (Q91WC9 whole entry, looked up): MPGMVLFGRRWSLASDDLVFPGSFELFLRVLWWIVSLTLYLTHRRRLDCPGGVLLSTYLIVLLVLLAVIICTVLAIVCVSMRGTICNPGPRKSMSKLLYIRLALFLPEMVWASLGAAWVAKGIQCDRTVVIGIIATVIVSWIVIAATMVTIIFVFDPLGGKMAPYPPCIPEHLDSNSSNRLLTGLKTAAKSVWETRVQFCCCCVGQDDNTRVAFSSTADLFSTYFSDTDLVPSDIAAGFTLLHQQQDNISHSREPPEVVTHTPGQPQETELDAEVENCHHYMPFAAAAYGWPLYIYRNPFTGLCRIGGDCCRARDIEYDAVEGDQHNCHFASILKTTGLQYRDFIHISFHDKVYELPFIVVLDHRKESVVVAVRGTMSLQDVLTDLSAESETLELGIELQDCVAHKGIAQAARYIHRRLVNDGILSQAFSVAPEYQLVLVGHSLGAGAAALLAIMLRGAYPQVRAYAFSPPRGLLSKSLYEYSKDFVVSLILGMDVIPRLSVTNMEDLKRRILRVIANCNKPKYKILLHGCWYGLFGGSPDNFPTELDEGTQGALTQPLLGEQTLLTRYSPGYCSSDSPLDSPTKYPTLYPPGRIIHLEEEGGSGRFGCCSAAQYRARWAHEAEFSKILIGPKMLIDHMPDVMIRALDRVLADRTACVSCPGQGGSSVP

The assay concerns the target Diacylglycerol lipase-beta (Mus musculus) (UniProt Q91WC9). Kind of assay: DAGLb inhibitors reducing SAG hydrolysis, biochemical, LC-MS, overexpressed mouse DAGLb (AID 602415). As to conditions: HEK293T membranes overexpressing mDAGLb, at 10 µM, active compounds read low.
For the molecule `Cc1ccc(C2C(/C=C3/SC(=S)NC3=O)=C(c3cccs3)Oc3ccccc32)cc1` (stereo not drawn), the substrate turnover was 35%. The same measure for `Cc1ccc(-n2c(O)c(/C=N/Nc3ccc(S(=O)(=O)N4CCOCC4)cc3[N+](=O)[O-])c3ccccc3c2=O)c(C)c1`: 56%. As to `O=C(NNc1c2ccccc2nc2ccccc12)c1ccc(O)cc1O`, the substrate turnover was 79% (inactive). The same measure for `Cc1cc(N(CCO)CCO)ccc1N=Nc1cc(F)ccc1F`: 69% (inactive). On to `CCSC1=NC(=O)/C(=C2/C=Cc3ccccc3N2CC)S1`, for which the substrate turnover was 100% (inactive). For the molecule `COc1cccc(C(=O)NNc2c3ccccc3nc3ccccc23)c1`, the substrate turnover is 71% (inactive). The same measure for `COC(=O)c1ccccc1NCc1cc(=O)oc2cc(O)c(O)cc12`: 48%; for `c1ccc(N=NC2=NN(c3ccccc3)CS2)cc1`: 61% (inactive); for `CN(C)c1ccc(N=Nc2ccc(S(N)(=O)=O)cc2)cc1`: 59%.

Take `O=C1c2ccccc2C(=O)c2c1cccc2N1CCCC1`: the substrate turnover is 79% (inactive). Take `COC(=O)C1=C(C(=O)OC)SC(=C2C(=S)C(C)(C)N(C(=O)C3CC3)c3ccccc32)S1`: the substrate turnover was 95% (inactive). The same measure for `Nc1ccc2c(c1)C(=O)c1cc(Cl)c(Cl)cc1-2`: 47%; for `O=[N+]([O-])c1ccccc1NN=Cc1c[nH]c2ccccc12`: 80% (inactive); for `Nc1nc(-c2ccccc2)c(N=Nc2cccc3ccccc23)s1`: 95% (inactive). To `O=C1C(NS(=O)(=O)c2cccs2)=C(N2CCN(c3cccc(Cl)c3)CC2)C(=O)c2ccccc21` belongs 81% (inactive); to `Nc1ccc(N=Nc2ccccc2)c2cccnc12`, 88% (inactive). The same measure for `COc1ccc(C=NNc2ccc(C(F)(F)F)cc2[N+](=O)[O-])cc1O`: 76% (inactive); for `CCCOc1ccc(C(=O)NNC(=S)NC(=O)c2cc(-c3ccc(Cl)cc3)nc3ccccc23)cc1`: 93% (inactive).

In the case of `CC1CC(C)CN(C(=O)c2ccc3c(c2NCCO)C(=O)c2ccccc2C3=O)C1` (stereo not drawn), the substrate turnover was 78% (inactive). To `CCN(CCCNc1cc2c(c(N)c1S(=O)(=O)O)C(=O)c1ccccc1C2=O)c1ccccc1` belongs 80% (inactive); to `Nc1cc([N+](=O)[O-])cc2oc(-c3ccccc3)cc12`, 89% (inactive); to `COc1ccccc1N=Nc1nc(-c2ccccc2)c(-c2ccccc2)[nH]1`, 79% (inactive).

Take `N=C1C(c2nc3ccccc3s2)=C(O)CN1NC(=O)c1ccccc1[N+](=O)[O-]`: the substrate turnover was 46%. Regarding `C/C(C/C(C)=C1/SC(=S)NC1=O)=C1\SC(=S)NC1=O`, the substrate turnover is 22%. The same measure for `Cc1ccc(C)c(NC(=O)/C(C#N)=C/c2cn(CC(=O)NCc3ccco3)c3ccccc23)c1`: 93% (inactive); for `COc1ccc(S(=O)(=O)N2CCOCC2)cc1N=Nc1sc(N)nc1-c1ccccc1`: 97% (inactive). The same measure for `COc1ccc(C2/C=C\CN(C(=O)c3ccc(C)cc3)[C@H](Cc3ccccc3)C(=O)N2Cc2ccc(F)cc2)cc1` (stereo partly drawn): 59%; for `Cc1ccc(NC2=C(Cl)C(=O)OC2OC(=O)c2ccco2)cc1C` (stereo not drawn): 39%; for `Cc1oc2cc([N+](=O)[O-])c(O)c([N+](=O)[O-])c2c1C(=O)c1ccc(Br)cc1`: 62% (inactive). `CC(=NNc1ccc(S(N)(=O)=O)cc1[N+](=O)[O-])c1ccc2c(c1)OCO2`: the substrate turnover is 64% (inactive). With `O=C1S/C(=C\c2ccc(O)c([N+](=O)[O-])c2)C(=O)N1c1ccccc1Cl`, the substrate turnover was 76% (inactive). The same measure for `CCC(=NNc1ccc([N+](=O)[O-])cc1[N+](=O)[O-])c1ccc(O)cc1`: 67% (inactive). As to `CN(C)c1ccc(N=Nc2ccc(S(=O)(=O)O)cc2)c2ccccc12`, the substrate turnover was 66% (inactive). To `O=C(O)c1cc(S(=O)(=O)Nc2cc(Cl)ccc2Oc2ccccc2)ccc1O` belongs 53%.

On to `CCOc1ccccc1N1CCN(C2=C(NS(=O)(=O)c3cccs3)C(=O)c3ccccc3C2=O)CC1`, for which the substrate turnover was 79% (inactive). Turning to `COc1ccccc1C=NNc1ccccc1[N+](=O)[O-]`, the substrate turnover was 94% (inactive). `CC(=O)Nc1ccc(/C=N/Nc2ccc(S(=O)(=O)Nc3ccccc3C(=O)O)cc2[N+](=O)[O-])cc1`: the substrate turnover was 84% (inactive). To `O=C(O)COc1ccccc1C=NNc1ccc(S(=O)(=O)Nc2ccc(Cl)cc2)cc1[N+](=O)[O-]` belongs 50%. Turning to `CC1=NN(c2ccccc2)C(=O)/C1=C\C=C1/N(C)c2ccccc2C1(C)C`, the substrate turnover is 74% (inactive).

With `CCOC(=O)/C(C#N)=C/C=C1\C=Cc2ccccc2N1CC`, the substrate turnover is 51%. Take `Cn1cc(/C=C2\SC(=O)NC2=S)c2ccccc21`: the substrate turnover was 61% (inactive). `N#CC(C#N)=NNc1ccc([N+](=O)[O-])cc1`: the substrate turnover was 65% (inactive).

As for `CC(=O)c1ccc(N2CCN(c3ccc(C(F)(F)F)cn3)CC2)cc1`, the substrate turnover was 67% (inactive). The same measure for `COc1cc(/C=C2/C(=O)NN(c3ccc(C)c(Cl)c3)C2=O)cc([N+](=O)[O-])c1O`: 43%; for `O=C(NNc1c2ccccc2nc2ccccc12)c1ccccc1O`: 56%. To `O=[N+]([O-])c1ccc(C=NNc2ccc3ccccc3c2)o1` belongs 67% (inactive); to `O=C1CC(=C(c2ccccc2)c2ccccc2)C(=O)N1CCCCN1CCN(c2cccc(Cl)c2)CC1`, 26%; to `CCN(CC)c1ccc(N=Nc2nn(C)c(C)c2[N+](=O)[O-])cc1`, 68% (inactive). `CC(=O)C1=C(O)C(=O)N(c2cc(C(C)(C)C)on2)C1c1ccc(Br)cc1` (stereo not drawn): the substrate turnover was 26%. To `O=C(NNc1c2ccccc2nc2ccccc12)c1cc2ccccc2cc1O` belongs 65% (inactive); to `Nc1nc(-c2ccccc2)c(N=Nc2ccc(Cl)cc2)s1`, 23%; to `Cc1[nH]n2c(=O)cc(-c3ccc([N+](=O)[O-])cc3)nc2c1-c1ccccc1`, 90% (inactive). Take `CN(C)c1ccc(N=Nc2ccccc2C(=O)OCC(=O)Nc2ccccc2C(F)(F)F)cc1`: the substrate turnover is 67% (inactive).

Take `O=C1c2cccc(Cl)c2C(=O)c2c1cccc2N1CCCC1`: the substrate turnover is 52%. The same measure for `NC(=O)CC(NC(=O)c1ccc(Br)cc1)c1ccc(NCCc2ccc(F)cc2)c([N+](=O)[O-])c1` (stereo not drawn): 70% (inactive); for `NS(=O)(=O)c1ccc(N=Nc2c(O)ccc3ccccc23)cc1`: 57%; for `NP(=O)(OCCCCc1ccccc1)Oc1ccccc1Cl` (stereo not drawn): 25%. To `O=S(=O)(O)c1cccc(N=Nc2c(O)ccc3ccccc23)c1` belongs 59%; to `CN(C)c1ccc(N=Nc2ccccc2C(=O)OCC(=O)NCC2CCCCC2)cc1`, 79% (inactive). On to `O=C1C(=C(c2ccccc2)c2ccccc2)Nc2ccccc21`, for which the substrate turnover is 50%.

Regarding `COc1cc(C=NNc2ccccc2[N+](=O)[O-])cc(OC)c1O`, the substrate turnover was 60% (inactive). Take `O=C(NC(C(=O)NN=Cc1cccc2ccccc12)c1n[nH]c(=O)c2ccccc12)c1ccccc1` (stereo not drawn): the substrate turnover was 49%.

As to `Cc1cc(N=Nc2ccccc2C(=O)O)c(C)c(C)c1O`, the substrate turnover is 89% (inactive). To `O=[N+]([O-])c1ccc(N2CCN(c3ccccc3)CC2)cc1` belongs 91% (inactive); to `Nc1nc(-c2ccccc2)c(N=Nc2ccccc2Cl)s1`, 39%; to `O=C(NN1C(=O)/C(=C/c2ccc(O)c([N+](=O)[O-])c2)SC1=S)c1ccccc1Cl`, 59%.

As to `Cc1ccc(-n2[nH]c(C)c(C=NNc3ccc([N+](=O)[O-])cc3[N+](=O)[O-])c2=O)cc1C`, the substrate turnover was 57%. With `Nc1nc(-c2ccccc2)c(N=Nc2cccnc2)s1`, the substrate turnover is 53%. To `CCCN1C(=O)/C(=C2/C=Cc3ccccc3N2CC)SC1=S` belongs 68% (inactive); to `CC1=NN(c2ccccc2)C(=O)C1N=Nc1ccc(N)cc1` (stereo not drawn), 65% (inactive); to `CCOc1cc(/C=C2\N=C(SCC)SC2=O)cc([N+](=O)[O-])c1OC(C)=O`, 78% (inactive). The same measure for `CCOc1ccc2c(c1)-c1c(ssc1=S)C(C)(C)N2`: 70% (inactive); for `Cc1cc(N=Nc2ccccc2)c(NCC(O)C(O)C(O)CO)cc1C` (stereo not drawn): 69% (inactive).

With `COc1cc(/C=C2\SC(=O)N(c3ccccc3Cl)C2=O)cc([N+](=O)[O-])c1O`, the substrate turnover is 61% (inactive). With `CC(C1SC(=S)NC1=O)C1SC(=S)NC1=O` (stereo not drawn), the substrate turnover is 67% (inactive).

As for `CC(=O)c1c(C)oc2ccc(NS(=O)(=O)c3ccc(O)c(C(=O)O)c3)cc12`, the substrate turnover is 23%. To `CC1(C)CC(=O)C2=C(C1)N=C1c3ccccc3C(=O)C1C2c1ccc(Cl)cc1` (stereo not drawn) belongs 82% (inactive); to `CCOc1ccc(Nc2nnc(SCc3nc4ccccc4c(=O)[nH]3)s2)cc1`, 69% (inactive); to `CCCCCCCCCCC[C@@H](C[C@@H]1OC(=O)[C@H]1CCCCCC)OC(=O)[C@H](CC(C)C)NC=O`, 0%. To `COc1ccc(N/C=C2\C(=O)CCc3c2oc2cc(Cl)c(O)c(Cl)c32)cc1` belongs 16%. For the molecule `CC1(C)CC(=O)C2=C(C1)c1c(ccc3ccccc13)NC2c1cc([N+](=O)[O-])cc([N+](=O)[O-])c1O` (stereo not drawn), the substrate turnover was 46%.

`CC1(C)CCCN(C(=O)c2ccc3c(c2NCCO)C(=O)c2ccccc2C3=O)C1`: the substrate turnover was 20%. The same measure for `O=C(NC(C(=O)NN=Cc1c2ccccc2cc2ccccc12)c1n[nH]c(=O)c2ccccc12)c1ccccc1` (stereo not drawn): 64% (inactive).

Source of the values: PubChem BioAssay AID602415 (The Scripps Research Institute Molecular Screening Center, 2012).
